# In patent publication EP4729511A1, “COMPOUND OR SALT THEREOF AND METHOD FOR PRODUCING SAME, COMPOSITION, HYDROGEN PEROXIDE REMOVER, AND CYTOTOXICITY INHIBITOR” (Nagase & Co., Ltd., priority 2023, dated 2024):
# Columns and labels:
# [1] = Evaluation of hydrogen peroxide removal (OxiSelect hydrogen peroxide assay kit, ADHP/HRP fluorescence); assay type: biochemical; details: as the amount of Compound A increased (doubling dilutions from 10 µM); 4 µM hydrogen peroxide solution; 30 minutes at room temperature; control (Compound A: 0 µM) set as 100%
# Method: The resulting Compound A (EGT-X) was subjected to several doubling dilutions from 10 µM with the buffer provided with a kit (OxiSelect hydrogen peroxide assay kit (manufactured by CELL BIOLABS, Inc.)), and 25 µL each of the resulting solutions was added to a 96 well plate. Also, a 4 µM solution in which hydrogen peroxide was diluted with the buffer provided with the kit was prepared, and 25 µL each of said solution was added to the 96 well plate. Further, a blank was prepared under the same conditions except for no hydrogen peroxide was added.
# Subsequently, according to the protocol described in the kit, 50 µL each of a mixture of ADHP (10-acetyl-3,7-dihydroxyphenoxazine) and HRP(horseradish peroxidase) provided with the kit was added thereto, and the resulting mixture was stirred. After incubated at room temperature for 30 minutes, the fluorescence intensity was measured under the condition of excitation wavelength of 530 nm and fluorescence wavelength of 590 nm. The blank value was subtracted from each measurement value to calculate each value. The percentage values when EGT-X was added were calculated based on the control (Compound A: 0 µM) value set as 100%, and the results were plotted in a graph. (Figures 3 and 4).
# [2] = tested on: HEK293 cells; experiment: Evaluation of cytotoxicity inhibition: hydrogen peroxide cytotoxicity against HEK293 cells in the presence of EGT-X (WST-1); assay type: cell-based; details: hydrogen peroxide 0.0015%, cultured 24 hours, WST-1 cell viability
# Method: After 24 hours, 50 µL each of EGT-X dissolved in a DMEM and hydrogen peroxide dissolved in a DMEM was added to the plate, so that the hydrogen peroxide concentration would be 0 for the control and 0.0015% for the others, and the EGT-X concentration would be those shown in Figures (Figures 5 and 6). […] The absorbance at 450 nm was measured.
compound,measurement,setting,value
C[N+](C)(C)[C@@H](Cc1c[nH]c(Sc2[nH]c(=S)[nH]c2C[C@@H](C(=O)[O-])[N+](C)(C)C)n1)C(=O)[O-] [Compound A],amount of the residual hydrogen peroxide,[1],decreased
same,concentration of EGT-X in the presence of which the cytotoxicity caused by hydrogen peroxide was inhibited,[2],≥ 125 µM
